Assay [1] addresses T1, Recombinant Human His6-USP1/His6-UAF1 Complex Protein (Homo sapiens (Human), UniProt O94782). In words: In-vitro enzymatic activity on USP1, second experimental method (60 min incubation). To be noted: incubation at room temperature 60 minutes, read-out: Inhibitory activities on USP-1, IC50. The format is biochemical. How it is done:
(§1) 1) An enzyme solution was prepared in 1×test buffer.
(§2) 2) Ubiquitin Rhodamine 110 protein, CF (UB-Rho), was added into 1×determination buffer to prepare a substrate solution.
(§3) 3) 10 μL of enzyme solution and 1×reaction buffer were transferred to a 384-well plate, and
(§4) 4) incubated at room temperature for 15 minutes.
(§5) 5) 10 μL of substrate solution was added into each well to start the reaction, centrifuged for 30 seconds, and shaken for 30 seconds.
(§6) 1) Plate reading was carried out on SpectraMax Paradigm for 30 minutes, with an excitation wavelength of 480 nm and an emission wavelength of 540 nm.
(§7) [formula] • wherein, Max represented: a luminous signal intensity of a positive control well without adding the compound; • Min represented: a luminous signal intensity of a negative control well without adding the enzyme; and • Signal represented: a luminous signal intensity of the compound of the test sample.
(§8) [formula] • wherein, Y represented: % inhibition; and • X represented: the concentration of the compound.
(§9) Second Experimental Method:
In the enzyme reaction experiment, the incubation time at room temperature in the step 4) was changed to 60 minutes, other conditions were the same as those in the first experimental method, and the following test results were obtained: […]

Assay [2] concerns Caov-3 cells. Kind of assay: Second in-vitro cytological inhibitory activity experiment, first method (CelltiterGlo assay), Caov-3. To be noted: Homo sapiens, Caov-3, 168 h, Experimental Example 3 first method, 2,000 cells/well, 7 days. The format is cell-based. How it is done:
(§10) Experimental Example 3 Second Experiment of in-vitro Cytological Inhibitory Activities of Compounds of the Present Disclosure
(§11) Cell lines used in the following experiment were as follows: MDA-MB-436: human breast cancer cells; and Caov-3: Human ovarian cancer cells
(§12) First Experimental Method (CelltiterGlo Assay)
(§13) All cells were adherent cells, the MDA-MB-436 cell medium was DMEM+10% FBS+1% ITS-G+16 μg/ml glutathione, the Caov-3 cell medium was DMEM+10% FBS, and cells were tested in a logarithmic growth phase.
(§14) Cells in the logarithmic growth phase were collected and counted by a […]. The cell viability was detected by a trypan blue exclusion method, and the cell viability was kept over 90%. The cell concentration was adjusted to be in a proper range, and 90 μL of cell suspension was added into a 96-well plate respectively.
(§15) 2.1 DMSO stock solutions of the test compounds were prepared, and concentrations of the stock solutions of the test compounds were 10 mM respectively.
(§16) The stock solutions of the test compounds were serially diluted from 10 mM with DMSO in a 3-fold gradient for a total of 8 concentrations. Then, 2 µL of DMSO-gradient diluted compounds were respectively added into 198 µL of culture solutions to give the working stock solutions of the test compounds (a compound concentration was 10-fold higher than the final concentration, and a maximum concentration was 100 μM).
(§17) 10 μL of compound working stock solution was added into each well in the 96-well plate inoculated with cells (10-fold dilution, a final DMSO concentration was 0.1%).
(§18) Solvent control: 0.1% DMSO.
(§19) Blank control: 0 hour after dosing, the 96-well plate was detected and read.
(§20) 2.5 The 96-well plate was placed in a 5% CO2 cell incubator at 37° C. to culture for 7 days.
(§21) A CTG reagent was thawed and the 96-well plate was equilibrated to room temperature for 30 minutes, 60 μL of reagent (Celititer Glo assay kit) was added into each well, shaking was carried out for 2 minutes with a shaker (in the absence of light), and the plate was incubated at room temperature for 20 minutes (in the absence of light). Light signal values were read on a multi-functional microplate reader.
(§22) 1) inhibition (%)=(DMSO solvent control well reading−test compound well reading)/(DMSO solvent control well reading−blank control well reading)×100%;
(§23) 2) GraphPad Prism was input for drawing to obtain a curve and IC50.

Assay [3] deals with MDA-MB-436 cells. Kind of assay: Second in-vitro cytological inhibitory activity experiment, first method (CelltiterGlo assay), MDA-MB-436. The class given is cell-based. To be noted: Homo sapiens, MDA-MB-436, 168 h, Experimental Example 3 first method, 3,000 cells/well, 7 days, read-out: In-vitro cytological activities, IC50, MDA-MB-436. How it is done:
as §10, §11, §12, §13, §14, §15, §16, §17, §18, §19, §20, §21, §22, §23

The target of assay [4] is T1, Recombinant Human His6-USP1/His6-UAF1 Complex Protein. Kind of assay: In-vitro enzymatic activity on USP1, first experimental method (Ub-Rho substrate, 15 min incubation). To be noted: incubation at room temperature 15 minutes, read-out: Inhibitory activities on USP-1, IC50. The class given is biochemical. How it is done: Experimental Example 1 In-vitro Enzymatic Activities of Compounds of the Present Disclosure
First Experimental Method:
1) The compounds of the present disclosure were prepared to 10 mM with DMSO, and used as test stock solutions.
2) The stock solutions of the compounds of the present disclosure were diluted in a 4-fold gradient for 10 concentrations, with a maximum concentration of 10 mM.
3) The diluted compounds of the present disclosure were respectively transferred to 384-well plates (diluted by 1,000 folds) by Echo550, 2 multiple wells were set for each concentration, and a final concentration of DMSO was […].
as §1, §2, §3, §4, §5, §6
2) Data on SpectraMax Paradigm were collected.
An inhibition (% inh) was calculated by the following formula:
as §7
IC50 was Calculated by the Following Formula:
as §8

The test system of assay [5] is MDA-MB-436 cells. In words: First in-vitro cytological inhibitory activity experiment (CelltiterGlo assay). The class given is cell-based, human. To be noted: Homo sapiens, MDA-MB-436, 168 h, Experimental Example 2, 4,000 cells/well, 7 days, read-out: In-vitro cytological activities, IC50, MDA-MB-436. How it is done:
Experimental Example 2 First Experiment of in-vitro Cytological Inhibitory Activities of Compounds of the Present Disclosure
A cell line used in the following experiment was as follows: MDA-MB-436: human breast cancer cells.
Experimental method (CelltiterGlo assay)
All cells were adherent cells, the medium was DMEM+10% FBS+1% ITS-G+16 μg/ml glutathione, and the cells were tested in a logarithmic growth phase.
as §14, §15
The stock solutions of the test compounds were serially diluted from 10 mM with DMSO in a 3-fold gradient for a total of 8 concentrations. Then, 2 µL of DMSO-gradient diluted compounds were respectively added into 198 µL of culture solutions to give the working stock solutions of the test compounds (a compound concentration was 10-fold higher than the final concentration, and a maximum concentration was […]).
as §17
Solvent control: 0.1% DMSO. […]
as §21
1) inhibition (%)=(DMSO solvent control well reading−test compound well reading)/(DMSO solvent control well reading−blank control well reading)×100%; […]

For assay [6], the system named is MDA-MB-436 cells. In words: Second in-vitro cytological inhibitory activity experiment, second method, MDA-MB-436. The format is cell-based. To be noted: Homo sapiens, Experimental Example 3 second method, 5 mM stock, 9 concentrations. How it is done: as §9
(§24) The concentrations of the compound stock solutions prepared were 5 mM.
(§25) The stock solutions of the test compounds were serially diluted from 5 mM with DMSO in a 3-fold gradient for a total of 9 concentrations.

The test system of assay [7] is Caov-3 cells. In words: Second in-vitro cytological inhibitory activity experiment, second method, Caov-3. The class given is cell-based. Particulars: Homo sapiens, Experimental Example 3 second method, 5 mM stock, 9 concentrations. How it is done:
as §9, §24, §25

T1 sequence (O94782 whole entry): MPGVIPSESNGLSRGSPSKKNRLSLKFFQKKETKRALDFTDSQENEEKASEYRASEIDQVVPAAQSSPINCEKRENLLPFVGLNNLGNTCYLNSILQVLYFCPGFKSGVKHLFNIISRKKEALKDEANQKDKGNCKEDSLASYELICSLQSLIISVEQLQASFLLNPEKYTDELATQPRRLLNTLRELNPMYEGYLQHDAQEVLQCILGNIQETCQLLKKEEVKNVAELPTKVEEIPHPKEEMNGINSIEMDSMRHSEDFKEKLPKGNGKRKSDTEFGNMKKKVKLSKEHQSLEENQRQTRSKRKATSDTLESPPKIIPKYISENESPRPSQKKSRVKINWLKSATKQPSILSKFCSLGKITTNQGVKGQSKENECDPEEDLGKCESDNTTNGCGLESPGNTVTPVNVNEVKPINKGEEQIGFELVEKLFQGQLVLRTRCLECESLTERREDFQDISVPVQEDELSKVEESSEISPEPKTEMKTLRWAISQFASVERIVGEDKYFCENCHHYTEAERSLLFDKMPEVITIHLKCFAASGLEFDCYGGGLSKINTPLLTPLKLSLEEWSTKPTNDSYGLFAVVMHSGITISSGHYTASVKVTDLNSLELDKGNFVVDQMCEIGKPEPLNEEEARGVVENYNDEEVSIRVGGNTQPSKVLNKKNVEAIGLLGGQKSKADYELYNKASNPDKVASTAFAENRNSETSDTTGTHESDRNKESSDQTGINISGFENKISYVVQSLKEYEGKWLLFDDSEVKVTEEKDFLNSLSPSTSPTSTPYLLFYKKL
T1 sequence (Q8TAF3 whole entry partner): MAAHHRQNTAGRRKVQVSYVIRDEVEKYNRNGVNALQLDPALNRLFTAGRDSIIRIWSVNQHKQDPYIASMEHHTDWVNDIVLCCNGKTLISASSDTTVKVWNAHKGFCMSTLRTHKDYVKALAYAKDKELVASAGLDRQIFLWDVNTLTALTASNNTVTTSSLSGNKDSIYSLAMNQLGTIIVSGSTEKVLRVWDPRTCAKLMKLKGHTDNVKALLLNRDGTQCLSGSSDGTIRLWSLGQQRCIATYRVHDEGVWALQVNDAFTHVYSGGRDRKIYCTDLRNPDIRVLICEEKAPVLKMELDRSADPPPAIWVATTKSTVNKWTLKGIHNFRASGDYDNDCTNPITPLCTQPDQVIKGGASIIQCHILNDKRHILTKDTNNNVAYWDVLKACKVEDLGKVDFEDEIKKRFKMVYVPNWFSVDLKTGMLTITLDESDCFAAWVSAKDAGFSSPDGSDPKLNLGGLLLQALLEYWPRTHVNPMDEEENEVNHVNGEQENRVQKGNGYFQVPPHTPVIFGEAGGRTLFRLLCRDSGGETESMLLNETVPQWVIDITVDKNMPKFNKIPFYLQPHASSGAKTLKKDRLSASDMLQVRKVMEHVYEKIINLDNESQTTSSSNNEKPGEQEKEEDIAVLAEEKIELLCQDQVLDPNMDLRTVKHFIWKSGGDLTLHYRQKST

Regarding `[2H]C([2H])([2H])Oc1ncnc(C2CC2)c1-c1nc2c3c(nn(Cc4ccc(-c5nc(C(F)(F)F)cn5C)cc4)c3n1)CCC2` [Compound 1-1, 4-(4-cyclopropyl-6-(methoxy-d3)pyrimidin-5-yl)-2-(4-(1-methyl-4-(trifluoromethyl)-1H-imidazol-2-yl)benzyl)-2,6,7,8-tetrahydropyrazolo[3,4,5-de]quinazoline], the IC50 (in general, the concentration that inhibits the measured activity by half) was 12.9 nM in assay [1], 1 to 600 nM in the assay with Caov-3 cells [2] and 42.4 nM in the assay on MDA-MB-436 cells [3].
For `Cc1cnn(C(C)C)c1-c1nc2c3c(nn(Cc4ccc(-c5nc(C(F)(F)F)cn5C(C)C)cc4)c3n1)CCC2` [Compound 19, 2-(4-(1-isopropyl-4-(trifluoromethyl)-1H-imidazol-2-yl)benzyl)-4-(1-isopropyl-4-methyl-1H-pyrazol-5-yl)-2,6,7,8-tetrahydropyrazolo[3,4,5-de]quinazoline] the same measures were 4.36 nM, 1 to 600 nM and 49.8 nM.
Consider `Cc1cc(C(F)(F)F)nn1-c1ccc(Cn2nc3c4c(nc(-c5cccc(F)c5C(C)C)nc42)CCC3)cc1` [Compound 3, 4-(3-fluoro-2-isopropylphenyl)-2-(4-(5-methyl-3-(trifluoromethyl)-1H-pyrazol-1-yl)benzyl)-2,6,7,8-tetrahydropyrazolo[3,4,5-de]quinazoline], for which the IC50 in assay [4] is 18 nM.
Regarding `COc1ncnc(C2CC2)c1-c1nc2c3c(nn(Cc4ccc(-c5nc(C(F)(F)F)cn5C)cc4)c3n1)CCC2` [Compound 1, 4-(4-cyclopropyl-6-methoxypyrimidine-5-yl)-2-(4-(1-methyl-4-(trifluoromethyl)-1H-imidazol-2-yl)benzyl)-2,6,7,8-tetrahydropyrazolo[3,4,5-de]quinazoline], the IC50 was found to be 28 nM in assay [4] and 68 nM in the assay with MDA-MB-436 cells [5].
Consider `COc1ncnc(C2CC2)c1-c1nc2c3c(nn(Cc4ccc(-c5nc(C(F)(F)F)cn5C(C)C)cc4)c3n1)CCC2` [Compound 16, 4-(4-cyclopropyl-6-methoxypyrimidine-5-yl)-2-(4-(1-isopropyl-4-(trifluoromethyl)-1H-imidazol-2-yl)benzyl)-2,6,7,8-tetrahydropyrazolo[3,4,5-de]quinazoline], for which the values for the IC50 (in assay [1]; with Caov-3 cells [2]; with MDA-MB-436 cells [3]) were 8 nM, 1 to 600 nM and 42.3 nM, respectively.
Take `[2H]C([2H])([2H])Oc1ncnc(C2CC2)c1-c1nc2c3c(nn(Cc4ccc(-c5nc(C(F)(F)F)cn5C(C)C)cc4)c3n1)CCCC2` [Compound 17-1, 4-(4-cyclopropyl-6-(methoxy-d3)pyrimidin-5-yl)-2-(4-(1-isopropyl-4-(trifluoromethyl)-1H-imidazol-2-yl)benzyl)-6,7,8,9-tetrahydro-2H-1,2,3,5-tetraazabenzo[cd]azulene]: the values for the IC50 (in assay [1]; in the assay on Caov-3 cells [2]; with MDA-MB-436 cells [3]) were 6.66 nM, 1 to 600 nM and 110 nM, respectively.
As to `Cc1cnn(C(C)C)c1-c1nc2c3c(nn(Cc4ccc(-c5nc(C(F)(F)F)cn5C)cc4)c3n1)CCC2` [Compound 18, 4-(1-isopropyl-4-methyl-1H-pyrazol-5-yl)-2-(4-(1-methyl-4-(trifluoromethyl)-1H-imidazol-2-yl)benzyl)-2,6,7,8-tetrahydropyrazolo[3,4,5-de]quinazoline], the figures for the IC50 (in assay [1]; in the assay with Caov-3 cells [2]; with MDA-MB-436 cells [3]) were 3.98 nM, 1 to 600 nM and 29.7 nM, respectively.
With `Cn1cc(C(F)(F)F)nc1-c1ccc(Cn2nc3c4c(nc(-c5c(OC(F)F)ncnc5C5CC5)nc42)CCC3)cc1` [Compound 20, 4-(4-cyclopropyl-6-(difluoromethoxy)pyrimidin-5-yl)-2-(4-(1-methyl-4-(trifluoromethyl)-1H-imidazol-2-yl)benzyl)-2,6,7,8-tetrahydropyrazolo[3,4,5-de]quinazoline], the IC50 was 55.7 nM with MDA-MB-436 cells [6] and 1 to 100 nM in the assay on Caov-3 cells [7].
With `CC(C)c1c(F)cccc1-c1nc2c3c(nn(Cc4ccc(-c5nc(C(F)(F)F)cn5C)cc4)c3n1)CCC2` [Compound 2, 4-(3-fluoro-2-isopropylphenyl)-2-(4-(1-methyl-4-(trifluoromethyl)-1H-imidazol-2-yl)benzyl)-2,6,7,8-tetrahydropyrazolo[3,4,5-de]quinazoline], the figures for the IC50 (in assay [4]; in the assay with MDA-MB-436 cells [5]) were 5 nM and 88.1 nM, respectively.
In the case of `[2H]C([2H])([2H])Oc1ncnc(C2CC2)c1-c1nc2c3c(nn(Cc4ccc(-c5nc(C(F)(F)F)cn5C)cc4)c3n1)CCCC2` [Compound 11-1, 4-(4-cyclopropyl-6-(methoxy-d3)pyrimidin-5-yl)-2-(4-(1-methyl-4-(trifluoromethyl)-1H-imidazol-2-yl)benzyl)-6,7,8,9-tetrahydro-2H-1,2,3,5-tetraazabenzo[cd]azulene], the IC50 was 15 nM in assay [1], 1 to 600 nM in the assay on Caov-3 cells [2] and 122 nM in the assay on MDA-MB-436 cells [3].
As to `[2H]C([2H])([2H])Oc1ncnc(C2CC2)c1-c1nc2c3c(nn(Cc4ccc(-c5nc(C(F)(F)F)cn5C(C)C)cc4)c3n1)CCC2` [Compound 16-1, 4-(4-cyclopropyl-6-(methoxy-d3)pyrimidin-5-yl)-2-(4-(1-isopropyl-4-(trifluoromethyl)-1H-imidazol-2-yl)benzyl)-2,6,7,8-tetrahydropyrazolo[3,4,5-de]quinazoline], the IC50 in assay [1] was 6.67 nM; in the assay on Caov-3 cells [2], 1 to 600 nM; in the assay on MDA-MB-436 cells [3], 55.3 nM.

The record behind these values is US20240101566A1, “TRICYCLIC UBIQUITIN SPECIFIC PROTEASE 1 INHIBITOR AND USE THEREOF” (SHANDONG XUANZHU PHARMA CO., LTD., priority 2021, published 2024).
